Source: the NIST ThermoML archive (doi:10.1021/acs.jced.8b01097)

Assay: xn = mol fraction of the nth substance listed
Settings: 85 kPa, Liquid; for viscosity: Concentric cylinders viscometry; for mass density: Vibrating tube method

CCC(C)O (centres undefined) [butan-2-ol] + CC(C)O
Settings | mass density [kg/m3] | viscosity [mPa·s]
293.15 K, x1 = 0.0807 | 787.1 | 2.497
293.15 K, x1 = 0.1619 | 789.2 | 2.584
293.15 K, x1 = 0.2385 | 791 | 2.674
293.15 K, x1 = 0.3492 | 793.6 | 2.814
293.15 K, x1 = 0.4386 | 795.7 | 2.932
293.15 K, x1 = 0.56 | 798.3 | 3.097
293.15 K, x1 = 0.6489 | 800 | 3.221
293.15 K, x1 = 0.7402 | 801.8 | 3.352
293.15 K, x1 = 0.8494 | 803.7 | 3.511
293.15 K, x1 = 0.9403 | 805.3 | 3.648
293.15 K, x1 = 1 | 806.2 | 3.743
298.15 K, x1 = 0.0807 | 782.9 | 2.146
298.15 K, x1 = 0.1619 | 785 | 2.211
298.15 K, x1 = 0.2385 | 786.9 | 2.282
298.15 K, x1 = 0.3492 | 789.5 | 2.391
298.15 K, x1 = 0.4386 | 791.5 | 2.481
298.15 K, x1 = 0.56 | 794.1 | 2.607
298.15 K, x1 = 0.6489 | 795.9 | 2.702
298.15 K, x1 = 0.7402 | 797.6 | 2.801
298.15 K, x1 = 0.8494 | 799.6 | 2.923
298.15 K, x1 = 0.9403 | 801.1 | 3.028
298.15 K, x1 = 1 | 802 | 3.101
303.15 K, x1 = 0.0807 | 778.7 | 1.851
303.15 K, x1 = 0.1619 | 780.8 | 1.901
303.15 K, x1 = 0.2385 | 782.7 | 1.955
303.15 K, x1 = 0.3492 | 785.3 | 2.038
303.15 K, x1 = 0.4386 | 787.4 | 2.107
303.15 K, x1 = 0.56 | 790 | 2.204
303.15 K, x1 = 0.6489 | 791.8 | 2.276
303.15 K, x1 = 0.7402 | 793.5 | 2.352
303.15 K, x1 = 0.8494 | 795.5 | 2.444
303.15 K, x1 = 0.9403 | 797 | 2.524
303.15 K, x1 = 1 | 797.9 | 2.579
308.15 K, x1 = 0.0807 | 774.4 | 1.603
308.15 K, x1 = 0.1619 | 776.5 | 1.643
308.15 K, x1 = 0.2385 | 778.5 | 1.684
308.15 K, x1 = 0.3492 | 781.1 | 1.747
308.15 K, x1 = 0.4386 | 783.1 | 1.801
308.15 K, x1 = 0.56 | 785.7 | 1.876
308.15 K, x1 = 0.6489 | 787.5 | 1.932
308.15 K, x1 = 0.7402 | 789.3 | 1.991
308.15 K, x1 = 0.8494 | 791.2 | 2.062
308.15 K, x1 = 0.9403 | 792.7 | 2.121
308.15 K, x1 = 1 | 793.6 | 2.162
313.15 K, x1 = 0.0807 | 769.9 | 1.397
313.15 K, x1 = 0.1619 | 772.1 | 1.427
313.15 K, x1 = 0.2385 | 774 | 1.459
313.15 K, x1 = 0.3492 | 776.7 | 1.508
313.15 K, x1 = 0.4386 | 778.7 | 1.549
313.15 K, x1 = 0.56 | 781.3 | 1.608
313.15 K, x1 = 0.6489 | 783.1 | 1.652
313.15 K, x1 = 0.7402 | 784.9 | 1.697
313.15 K, x1 = 0.8494 | 786.8 | 1.751
313.15 K, x1 = 0.9403 | 788.4 | 1.798
313.15 K, x1 = 1 | 789.2 | 1.828
318.15 K, x1 = 0.0807 | 765.5 | 1.221
318.15 K, x1 = 0.1619 | 767.6 | 1.246
318.15 K, x1 = 0.2385 | 769.6 | 1.271
318.15 K, x1 = 0.3492 | 772.2 | 1.31
318.15 K, x1 = 0.4386 | 774.3 | 1.342
318.15 K, x1 = 0.56 | 776.9 | 1.388
318.15 K, x1 = 0.6489 | 778.7 | 1.422
318.15 K, x1 = 0.7402 | 780.4 | 1.457
318.15 K, x1 = 0.8494 | 782.4 | 1.5
318.15 K, x1 = 0.9403 | 783.9 | 1.536
318.15 K, x1 = 1 | 784.7 | 1.559
323.15 K, x1 = 0.0807 | 760.9 | 1.072
323.15 K, x1 = 0.1619 | 763.1 | 1.093
323.15 K, x1 = 0.2385 | 765 | 1.113
323.15 K, x1 = 0.3492 | 767.7 | 1.144
323.15 K, x1 = 0.4386 | 769.7 | 1.169
323.15 K, x1 = 0.56 | 772.4 | 1.205
323.15 K, x1 = 0.6489 | 774.2 | 1.231
323.15 K, x1 = 0.7402 | 775.9 | 1.258
323.15 K, x1 = 0.8494 | 777.9 | 1.291
323.15 K, x1 = 0.9403 | 779.4 | 1.318
323.15 K, x1 = 1 | 780.2 | 1.318
